Earlier results in US20190358206A1, “TOPICAL FORMULATIONS OF BIARYL HETEROCYCLIC COMPOUNDS AND METHODS OF USE THEREOF” (Melinta Subsidiary Corp., priority 2016, published 2019).

Test system: intracellular S. aureus (including linezolid-resistant), Listeria monocytogenes and Legionella pneumophila
Conditions: cited from earlier work

In the case of `CC(=O)NC[C@H]1CN(c2ccc(-c3ccc(CNCc4cnn[nH]4)cc3)c(F)c2)C(=O)O1` [Radezolid, N-[3-(2-Fluoro-4′-{[(1H-[1,2,3]triazol-4-ylmethyl)-amino]-methyl}-biphenyl-4-yl)-2-oxo-oxazolidin-5-(S)-ylmethyl]-acetamide], the intracellular killing is listed as “kills intracellular S. aureus (including linezolid-resistant), Listeria monocytogenes and Legionella pneumophila”.
